Values quoted from earlier work in US20080286341A1, “Buffered coated nicotine containing products” (priority 2007, published 2008).

Columns and labels:
[1] = from Handbook of Chemistry and Physics, 85th edition
[2] = smoking a cigarette

SMILES | pKa value (in interval 8.0-9.6) [1] | time to reach the brain after inhalation [2]
NC(=O)C[C@H](N)C(=O)O [Aspargine] | 8.73 | 
CN1CCCC1c1cccnc1 (centres unmarked) [nicotine, 3-(1-methyl-2-pyrrolidinyl)-pyridine] |  | ten
